# Experimental data taken from publication PMC3373380 (BMC Pharmacology, 2012).
# Legend:
# [1] = molecular target: cynomolgus monkey DPP8 (Macaca fascicularis, UniProt A0A2K5VHB7); assay: Steady-state inhibition of isolated cloned DPP8 at 37°C (gly-pro-pNA); assay type: biochemical; settings: mean ± SD (n)
# Method: (§1) All solutions were preheated to 37°C.
# (§2) DPP8 and DPP9 were tested under identical conditions.
# [2] = molecular target: cynomolgus monkey DPP9 (Macaca fascicularis, UniProt A0A2K5TQ54); assay: Steady-state inhibition of isolated cloned DPP9 at 37°C (gly-pro-pNA); assay type: biochemical; settings: mean ± SD (n)
# Method: as §1, §2
# [3] = molecular target: T1, cynomolgus monkey DPP4 (UniProt A0A075TEP6); assay: Steady-state inhibition of isolated cloned DPP4 at 37°C (gly-pro-pNA); assay type: biochemical; settings: mean ± SD (n)
# T1 construct: made in house
# Method: as §1, §2
# [4] = molecular target: T2, human DPP9 (Homo sapiens, UniProt Q86TI2); assay: Steady-state inhibition of isolated cloned DPP9 at 37°C (gly-pro-pNA); assay type: biochemical
# T2 construct: made in house
# Method: (§3) All solutions were preheated to 37°C. Inhibitors were preincubated with enzyme for 40 minutes prior to assay initiation. […] Softmax Pro software from Molecular Devices (Sunnyvale, CA) was used to obtain the initial slope of the reaction in each well, and the fits were inspected to insure that the reactions were linear to a correlation coefficient of 0.99. An Excel template with XLFit (IDBS, Guildford, U.K.) was used for determination of the IC50 for inhibition at each substrate concentration. […] Therefore, IC50 was then converted to Ki assuming competitive inhibition according to:
# (§4) The calculated Ki values for competitive inhibition at each substrate concentration were averaged and reported. DPP8 and DPP9 were tested under identical conditions. The in vitro assays were also used to determine substrate Km, by varying substrate concentration across an appropriate range. Km was calculated using GraFit software (Erithacus, Surrey U.K.)
# [5] = molecular target: T3, human DPP8 (Homo sapiens, UniProt Q6V1X1); assay: Steady-state inhibition of isolated cloned DPP8 at 37°C (gly-pro-pNA); assay type: biochemical
# T3 construct: made in house
# Method: as §3, §4
# [6] = system: plasma DPP activity; assay: Cynomolgus monkey ex vivo plasma DPP inhibition, ala-pro-AFC assay; assay type: in vivo; settings: cynomolgus monkeys, single oral doses, 24 hours post dose
# Method: (§5) Male and female cynomolgus monkeys (Charles River BRF, Houston, TX), were housed in an AAALAC-accredited facility (on a 12-hour light/dark cycle) in stainless-steel cages. They had access to purified tap water ad libitum and were fed Harlan Diet 2050 C (Certified 20% protein primate diet). […]. Doses were administered once weekly using a crossover design such that no monkeys received the same dose twice. For the ex vivo cynomolgus monkey assays, blood samples (approximately 0.5 ml) were collected prior to dosing and 1, 2, 4, 6, 8, and 24 hours post dosing in tubes containing K2EDTA. Tubes were inverted several times to ensure mixing, and placed on ice. Samples were centrifuged at 5000 rpm for 10 minutes at 4°C for plasma isolation. Plasma was stored at -20°C until analyzed for DPP activity. No difference in DPP inhibition was noted between males and females and so data were combined for analyses.
# (§6) This procedure produced a 3-fold dilution of plasma.
# [7] = system: plasma DPP activity; assay: Cynomolgus monkey ex vivo plasma DPP inhibition, gly-pro-pNA assay; assay type: in vivo; settings: cynomolgus monkeys, single oral doses, 24 hours post dose, same samples
# Method: as §5
# This assay was reported by Merck as used in their clinical trials, using gly-pro-pNA as substrate. […] Activity, the rate of release of free pNA from the pseudo-substrate, was assayed at 30°C, using a Spectramax 340 plate reader ([…]) with rate determining software. Absorbance at 390 nm was measured. Results were expressed as arbitrary units because standard pNA curves were not run for all experiments. The extent of DPP inhibition and IC50 values were calculated as described above.
# [8] = molecular target: cynomolgus monkey plasma DPP activity (Macaca fascicularis, UniProt A0A2K5VXJ1); assay: Ala-pro-AFC plasma DPP inhibition assay in vitro; assay type: biochemical
# From the text: as §6
# [9] = human, 37°C, gly-pro-pNA, mean ± SD (n)
# cynomolgus monkey DPP8, sequence (A0A2K5VHB7 1-898): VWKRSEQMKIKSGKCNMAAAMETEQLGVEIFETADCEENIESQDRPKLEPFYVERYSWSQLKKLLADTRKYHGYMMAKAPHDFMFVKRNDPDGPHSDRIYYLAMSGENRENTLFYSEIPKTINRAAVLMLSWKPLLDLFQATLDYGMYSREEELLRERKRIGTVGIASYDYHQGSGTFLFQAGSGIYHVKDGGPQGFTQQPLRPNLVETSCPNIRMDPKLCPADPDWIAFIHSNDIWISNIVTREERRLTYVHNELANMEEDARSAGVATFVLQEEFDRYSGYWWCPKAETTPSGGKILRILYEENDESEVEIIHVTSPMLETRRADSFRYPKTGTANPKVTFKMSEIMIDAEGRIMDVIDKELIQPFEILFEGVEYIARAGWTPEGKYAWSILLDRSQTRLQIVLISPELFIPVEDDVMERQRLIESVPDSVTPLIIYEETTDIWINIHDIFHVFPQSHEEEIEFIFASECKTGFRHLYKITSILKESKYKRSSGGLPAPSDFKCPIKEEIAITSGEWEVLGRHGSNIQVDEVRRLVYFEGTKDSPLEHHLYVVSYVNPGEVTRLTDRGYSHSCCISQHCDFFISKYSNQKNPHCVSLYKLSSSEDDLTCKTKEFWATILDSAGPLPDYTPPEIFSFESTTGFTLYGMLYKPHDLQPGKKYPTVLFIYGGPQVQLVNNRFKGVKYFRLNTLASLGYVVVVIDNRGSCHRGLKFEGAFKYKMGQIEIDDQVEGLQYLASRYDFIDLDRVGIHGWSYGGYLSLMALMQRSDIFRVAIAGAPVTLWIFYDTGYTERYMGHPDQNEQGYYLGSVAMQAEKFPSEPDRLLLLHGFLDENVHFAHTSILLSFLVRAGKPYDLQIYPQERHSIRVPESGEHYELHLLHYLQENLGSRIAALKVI
# cynomolgus monkey DPP9, sequence (A0A2K5TQ54 156-951): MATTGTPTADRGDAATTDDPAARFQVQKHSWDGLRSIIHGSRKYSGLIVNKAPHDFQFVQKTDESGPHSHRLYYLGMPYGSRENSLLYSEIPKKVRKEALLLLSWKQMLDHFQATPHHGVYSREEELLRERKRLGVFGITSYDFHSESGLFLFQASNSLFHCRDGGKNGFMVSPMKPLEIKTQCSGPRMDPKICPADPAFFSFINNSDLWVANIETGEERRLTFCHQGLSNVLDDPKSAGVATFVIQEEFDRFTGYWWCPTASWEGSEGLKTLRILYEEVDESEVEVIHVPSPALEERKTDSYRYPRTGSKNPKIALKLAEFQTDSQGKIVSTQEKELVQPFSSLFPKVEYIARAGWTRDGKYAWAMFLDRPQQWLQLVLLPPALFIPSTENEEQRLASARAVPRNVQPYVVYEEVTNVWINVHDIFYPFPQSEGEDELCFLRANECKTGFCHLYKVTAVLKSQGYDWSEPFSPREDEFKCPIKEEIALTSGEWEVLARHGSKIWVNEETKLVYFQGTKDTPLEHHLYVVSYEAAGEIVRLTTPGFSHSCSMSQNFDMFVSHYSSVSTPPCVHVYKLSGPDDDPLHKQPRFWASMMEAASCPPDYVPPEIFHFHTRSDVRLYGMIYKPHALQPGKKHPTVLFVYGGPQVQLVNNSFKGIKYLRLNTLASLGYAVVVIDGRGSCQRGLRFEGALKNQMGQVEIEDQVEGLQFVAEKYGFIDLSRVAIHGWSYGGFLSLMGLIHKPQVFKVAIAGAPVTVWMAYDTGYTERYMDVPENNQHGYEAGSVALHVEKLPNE
# T3 sequence (Q6V1X1 whole entry): as the sequence (A0A2K5VHB7 1-898) above, with V1M, M357I, S605P, L609P, D823N counted along it
# T2 sequence (Q86TI2 whole entry): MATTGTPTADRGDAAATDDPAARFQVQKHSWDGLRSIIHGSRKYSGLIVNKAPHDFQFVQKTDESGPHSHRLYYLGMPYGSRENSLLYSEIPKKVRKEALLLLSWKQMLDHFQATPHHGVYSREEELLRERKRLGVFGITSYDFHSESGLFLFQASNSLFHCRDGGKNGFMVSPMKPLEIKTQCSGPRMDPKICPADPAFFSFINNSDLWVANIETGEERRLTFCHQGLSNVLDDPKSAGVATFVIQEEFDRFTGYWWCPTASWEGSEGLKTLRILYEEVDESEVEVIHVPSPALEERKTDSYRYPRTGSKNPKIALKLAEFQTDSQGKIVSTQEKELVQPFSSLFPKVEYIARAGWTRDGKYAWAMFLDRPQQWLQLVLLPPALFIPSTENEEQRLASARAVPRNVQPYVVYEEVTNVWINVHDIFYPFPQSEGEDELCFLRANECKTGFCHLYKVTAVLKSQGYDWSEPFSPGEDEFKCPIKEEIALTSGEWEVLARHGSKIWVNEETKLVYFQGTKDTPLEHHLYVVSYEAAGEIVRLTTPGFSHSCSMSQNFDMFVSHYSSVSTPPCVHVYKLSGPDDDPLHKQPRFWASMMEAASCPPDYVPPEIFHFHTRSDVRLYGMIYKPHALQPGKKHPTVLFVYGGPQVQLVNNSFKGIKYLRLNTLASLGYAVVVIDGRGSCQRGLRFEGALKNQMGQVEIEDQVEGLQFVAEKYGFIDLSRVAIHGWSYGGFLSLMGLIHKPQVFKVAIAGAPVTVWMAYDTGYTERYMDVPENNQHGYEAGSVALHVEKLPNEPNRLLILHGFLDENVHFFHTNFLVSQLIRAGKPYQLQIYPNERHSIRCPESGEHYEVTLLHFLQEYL
# cynomolgus monkey plasma DPP activity, sequence (A0A2K5VXJ1 39-766): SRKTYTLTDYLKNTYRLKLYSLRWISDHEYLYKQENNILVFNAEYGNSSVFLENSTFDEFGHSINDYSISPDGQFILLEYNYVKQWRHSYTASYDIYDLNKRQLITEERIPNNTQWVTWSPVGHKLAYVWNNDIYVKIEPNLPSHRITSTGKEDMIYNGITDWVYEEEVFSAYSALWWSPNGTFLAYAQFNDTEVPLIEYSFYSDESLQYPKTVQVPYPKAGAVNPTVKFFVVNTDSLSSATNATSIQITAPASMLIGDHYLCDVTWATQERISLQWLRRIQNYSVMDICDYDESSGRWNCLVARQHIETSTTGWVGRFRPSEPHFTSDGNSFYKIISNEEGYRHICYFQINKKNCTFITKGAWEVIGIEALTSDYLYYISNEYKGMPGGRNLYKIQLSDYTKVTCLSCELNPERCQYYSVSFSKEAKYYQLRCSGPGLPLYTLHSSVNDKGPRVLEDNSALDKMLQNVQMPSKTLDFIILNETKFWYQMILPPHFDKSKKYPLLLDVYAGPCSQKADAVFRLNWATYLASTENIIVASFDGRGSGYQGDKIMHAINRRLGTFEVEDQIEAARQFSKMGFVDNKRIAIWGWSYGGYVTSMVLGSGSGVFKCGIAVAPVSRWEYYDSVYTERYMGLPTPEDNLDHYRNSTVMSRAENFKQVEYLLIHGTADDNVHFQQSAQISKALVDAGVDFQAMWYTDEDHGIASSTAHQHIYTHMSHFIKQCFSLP
# T1 sequence (A0A075TEP6 1-766): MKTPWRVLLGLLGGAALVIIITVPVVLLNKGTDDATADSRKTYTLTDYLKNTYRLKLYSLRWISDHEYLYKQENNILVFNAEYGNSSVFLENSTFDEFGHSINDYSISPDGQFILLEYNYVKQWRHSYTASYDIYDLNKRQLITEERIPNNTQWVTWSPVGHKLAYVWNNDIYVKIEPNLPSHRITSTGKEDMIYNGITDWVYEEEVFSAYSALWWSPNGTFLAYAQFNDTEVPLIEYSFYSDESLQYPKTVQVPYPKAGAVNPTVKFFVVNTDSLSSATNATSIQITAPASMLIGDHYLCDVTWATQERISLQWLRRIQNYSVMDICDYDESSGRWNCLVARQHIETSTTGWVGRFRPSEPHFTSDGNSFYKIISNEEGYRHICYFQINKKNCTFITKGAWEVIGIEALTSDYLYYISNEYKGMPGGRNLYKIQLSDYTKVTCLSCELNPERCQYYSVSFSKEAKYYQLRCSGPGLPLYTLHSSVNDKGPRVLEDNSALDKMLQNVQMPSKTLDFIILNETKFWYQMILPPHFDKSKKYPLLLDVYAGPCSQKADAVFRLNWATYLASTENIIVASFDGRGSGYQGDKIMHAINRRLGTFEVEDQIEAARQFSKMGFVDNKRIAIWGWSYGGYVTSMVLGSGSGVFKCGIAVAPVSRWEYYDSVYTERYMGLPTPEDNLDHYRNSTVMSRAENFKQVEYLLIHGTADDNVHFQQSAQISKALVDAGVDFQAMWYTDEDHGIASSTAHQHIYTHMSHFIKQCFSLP
compound,measurement,setting,value
N#C[C@@H]1C[C@@H]2C[C@@H]2N1C(=O)[C@@H](N)C12CC3CC(O)(CC(O)(C3)C1)C2 [5-hydroxysaxagliptin],Ki,[1],2060 ± 658 nM
same,Ki,[2],323 ± 60 nM
same,Ki,[3],2.9 ± 1.1 nM
same,slow binding kinetics to DPP9,[4],Neither saxagliptin nor 5-hydroxysaxagliptin exhibited slow binding kinetics
same,Ki,[4]; [9],423 ± 64 nM
same,slow binding kinetics to DPP8,[5],Neither saxagliptin nor 5-hydroxysaxagliptin exhibited slow binding kinetics
same,Ki,[5]; [9],2500 ± 727 nM
"N#C[C@@H]1C[C@@H]2C[C@@H]2N1C(=O)[C@@H](N)C12CC3CC(CC(O)(C3)C1)C2 [Saxagliptin, (1 S,3 S,5 S)-2-[(2 S)-2-Amino-2-(3-hydroxytricyclo[3.3.1.1^3,7]dec-1-yl)acetyl]-2-azabicyclo[3.1.0]hexane-3-carbonitrile, monohydrate]",Ki,[1],390 ± 82 nM
same,Ki,[2],61 ± 5 nM
same,plasma DPP inhibition ex vivo,[6],close to maximal inhibition of the inhibitable plasma DPP activity at its highest doses
"N[C@@H](CC(=O)N1CCn2c(nnc2C(F)(F)F)C1)Cc1cc(F)c(F)cc1F [Sitagliptin, reference compound]",Ki,[1],21900 ± 17500 nM
same,plasma DPP inhibition ex vivo,[7],"statistically significant inhibition of plasma DPP activity at 3, 10 and 40 mg/kg doses"
same,Ki,[2],65800 ± 7970 nM
same,increase of IC50 in the ala-pro-AFC assay compared to the gly-pro-pNA assay,[8],26 fold
same,plasma DPP inhibition ex vivo,[6],no effect on plasma DPP activity at any of the doses
"N#C[C@@H]1CCCN1C(=O)CNC12CC3CC(CC(O)(C3)C1)C2 [Vildagliptin, reference compound]",Ki,[2],125 ± 39 nM
